Assays:
[1] = similar concentrations; Zhang et al. 2004; cited from earlier work
[2] = NMR / 2D DOSY study of metal-dependent complex formation; assay type: physicochemical; conditions: NMR concentrations (26-31 mM)
From the text: Three larger and three smaller resonances clustered near 6 ppm, from the H1′ were observed. Diffusion coefficients (D, m^2/s×10^−1), obtained from a separate 2D DOSY experiment on the same sample, are indicated in parentheses. […] (Zhang et al., J. Am. Chem. Soc. 2006, 128, 7015-7024; Zhao et al., Nucleosides Nucleotides Nucl. Acids 2009, 28, 352-378) Here, all three larger resonances have D=1.5, indicative of octamolecular complexes. The two farthest downfield of the three smaller resonances have D=1.7, indicative of tetramolecular complexes (the octamolecular having been already identified), and the remaining farthest upfield smaller resonance has D=3.5, indicative of a bimolecular structure. At 5° C., all three smaller resonances nearly disappear, leaving primarily the three larger ones. The octamolecular complexes are expected to be preferentially stabilized at lower temperatures. At 55° C., the three larger resonances all decrease, and only the farthest upfield of the smaller resonances increases, confirming it is the bimolecular structure. The higher order complexes are disrupted at higher temperatures, leaving the bimolecular structure dominant.
All NMR spectra were acquired on a Varian VNMRS 500 MHz spectrometer. Samples were 31 mM of 2, 27 mM of 3, 26 mM of […] of 5, and 26 mM of 6, each in 0.30 mL H2O containing 10% D2O. The pH of all samples was adjusted to 6.8, using either HCl or KOH/NaOH/LiOH, as appropriate. Each sample was heated to 75° C. for 10 minutes, then allowed to cool to room temperature before being transferred to the NMR tube. The ^1H and ^13C NMR spectra were referenced to sodium trimethylsilylpropylsulfonate in D2O, and the ^31P NMR spectra were referenced to 10% phosphoric acid in D2O. The 1D ^1H NMR spectra used frequency pre-saturation for water suppression. The DOSY spectra used a pre-saturation pulse for water suppression. The data were collected using a 2.5 second relaxation delay over an 8000 Hz spectral width, with 16 repetitions over 256 increments and a diffusion delay of 0.1 seconds. For the HMBC experiments, the ^1H spectra were acquired with 16 scans, with acquisition time and relaxation delay of 2 s and 1.5 s, respectively. To suppress water, ^1H pre-saturation was applied during the relaxation delay. The ^13C spectra were acquired with 1024 scans, with acquisition time and relaxation delay of 0.5 s and 1 s, respectively. For NOE enhancement and ^1H decoupling, ^1H WALTZ16 decoupling was applied during the entire experiment. ^1H-^13C HMBC 2D spectra were acquired using 2048 (t2) times 100 (t1) complex points with spectral widths of 8000 Hz (t2) and 10000 Hz (t1) and transformed to spectra with 2048 (D1) times 1024 (D2) real points after two times linear prediction in t1. The number of scans per each t1 increment was 128 and the relaxation delay for each scan was 1.5 s. To suppress water, ^1H pre-saturation was applied during the relaxation delay. The DEPT transfer delay for HMBC was chosen as ^2,3JHC=20 Hz (the multi-bond coupling constant) and ^1JHC (the one-bond coupling constant) was set as 140 Hz to suppress cross peaks contributed from the one-bond ^1H-^13C connectivity.

[3] = Solubility in water (noted when preparing NMR samples); assay type: physicochemical; conditions: K+ salt sample for NMR; spectra obtained in 1:1 CH3OD:H2O instead
Description: Portions of the ^1H NMR spectra of the K^+ salts of 4, 5, and 6 at 25° C. are shown in FIGS. 5B, 5C, and 5D, respectively. […] For 4, 5, and 6, the H1′/amino resonances display nearly identical diffusion constants of 3.7/3.5, 2.4/2.5, and 1.9/2.0, respectively. These resonances become larger at 5° C. and disappear completely at 55° C. In all three cases, ^1H spectra of the Na^+ salts closely resemble those of the K^+ salts.

Row | Compound | complex formed (self-association) ([2]; K+ salt) | complex formed (self-association) ([2]; Na+ salt) | solubility in water [3] | hypochromic effect in UV melt [1]
1 | Nc1nc2c(ncn2[C@@H]2O[C@@H]3COP(=O)(O)OC4[C@@H](COP(=O)(O)O[C@@H]3C2O)O[C@@H](n2cnc3c(=O)[nH]c(N)nc32)[C@H]4O)c(=O)[nH]1 (stereo partly shown) [compound 1, cyclic diguanosine monophosphate] |  |  |  | pronounced hypochromism
2 | CSc1nc2c(=O)[nH]c(N)nc2n1[C@@H]1O[C@@H]2COP(=O)(O)OC3C(O)[C@H](n4c(SC)nc5c(=O)[nH]c(N)nc54)O[C@@H]3COP(=O)(O)OC2C1O (stereo partly shown) [compound 4, cyclo-8-methylthioguanosinylyl (3′→5′)-8′-methylthioguanosinylyl (3′→5′)] | primarily a syn bimolecular structure | primarily a syn bimolecular structure |  | 
3 | Nc1nc2c(nc(S)n2[C@@H]2O[C@@H]3COP(=O)(O)OC4C(O)[C@H](n5c(=S)[nH]c6c(=O)[nH]c(N)nc65)O[C@@H]4COP(=O)(O)OC3C2O)c(=O)[nH]1 (stereo partly shown) [compound 3, cyclo-8-thioguanosinylyl (3′→5′)-8′-thioguanosinylyl (3′→5′)] | primarily a syn bimolecular structure | primarily a syn bimolecular structure |  | 

Now from value to compound, other results behind:

Row | complex formed (self-association) ([2]; K+ salt) | complex formed (self-association) ([2]; Na+ salt) | solubility in water [3] | Compound | hypochromic effect in UV melt [1]
4 | primarily a syn bimolecular structure | primarily a syn bimolecular structure | not soluble in water | CC(=O)c1cccc(-c2nc3c(=O)[nH]c(N)nc3n2[C@@H]2O[C@@H]3COP(=O)(O)OC4C(O)[C@H](n5c(-c6cccc(C(C)=O)c6)nc6c(=O)[nH]c(N)nc65)O[C@@H]4COP(=O)(O)OC3C2O)c1 (stereo partly shown) [compound 6, cyclo-8-(3-acetylphenyl)-guanosinylyl(3′→5′)-8′-(3-acetylphenyl)-guanosinylyl(3′→5′)] | 
5 | primarily a syn bimolecular structure | primarily a syn bimolecular structure |  | Nc1nc2c(nc(-c3ccccc3)n2[C@@H]2O[C@@H]3COP(=O)(O)OC4C(O)[C@H](n5c(-c6ccccc6)nc6c(=O)[nH]c(N)nc65)O[C@@H]4COP(=O)(O)OC3C2O)c(=O)[nH]1 (stereo partly shown) [compound 5, cyclo-8-phenylguanosinylyl (3′→5′)-8′-phenylguanosinylyl (3′→5′)] | 

— patent US8450293B2, “Synthesis and characterization of C8 analogs of c-di-GMP” (Rutgers, The State University of New Jersey, priority 2010, dated 2013)
